# Measurements taken from PubChem BioAssay (NCI).
#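 Dose response: 5 concentrations. Exposure: 48 h. Format: 96-well plates. Endpoint: linear interpolation; highest concentration if not reached. TGI is the concentration that stops growth completely.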
# Columns and labels:
# Test in all cases: NCI tumour cell line growth inhibition, 48 h
# A549 NSCLC = test system: A549 NSCLC
# HS 578T breast = test system: HS 578T breast
# MCF7 breast = test system: MCF7 breast
# OVCAR-4 ovarian = test system: OVCAR-4 ovarian
# RPMI-8226 leukemia = test system: RPMI-8226 leukemia
# SF-268 CNS = test system: SF-268 CNS
# SW-620 colon = test system: SW-620 colon
# BT-549 breast = test system: BT-549 breast
# T-47D breast = test system: T-47D breast
# UACC-62 melanoma = test system: UACC-62 melanoma
Structure (SMILES),TGI (A549 NSCLC),TGI (HS 578T breast),TGI (MCF7 breast),TGI (OVCAR-4 ovarian),TGI (RPMI-8226 leukemia),TGI (SF-268 CNS),TGI (SW-620 colon),TGI (BT-549 breast),TGI (T-47D breast),TGI (UACC-62 melanoma)
Nc1nc(Cl)cc(OCC2(CO)CCCC2)n1,> 100 µM,> 100 µM,> 100 µM,> 100 µM,> 100 µM,> 100 µM,> 100 µM,,,
Cn1c(-c2ccc[se]2)ccc1-c1ccc(C=O)[se]1,> 100 µM,> 89.9 µM,,> 61.1 µM,> 70.2 µM,59.1 µM,> 51.6 µM,65.4 µM,12.4 µM,
Cc1nn(C(=O)c2ccccc2O)c2c1C(c1ccc(O)cc1O)SC(N)=N2 (centres undefined),> 10 µM,8.84 µM,> 10 µM,> 10 µM,> 10 µM,> 10 µM,> 10 µM,8.39 µM,,5.71 µM
O=c1[nH]c(=O)c2ncn(-c3ccc([N+](=O)[O-])cn3)c2[nH]1,> 100 µM,,> 100 µM,> 100 µM,> 100 µM,> 100 µM,> 100 µM,> 100 µM,> 100 µM,> 100 µM
O=C(CN1CCCC1=O)CS(=O)(=O)c1ccccc1,> 100 µM,> 100 µM,> 100 µM,,> 100 µM,> 100 µM,> 100 µM,> 100 µM,,> 100 µM
COc1cccc2c1NC(=O)Cc1c-2[nH]c2ccccc12,> 100 µM,> 100 µM,> 100 µM,> 100 µM,> 100 µM,> 100 µM,> 100 µM,,> 100 µM,> 100 µM
COc1cc(CC(C)=O)cc(OC)c1,> 100 µM,,> 100 µM,> 100 µM,> 100 µM,> 100 µM,> 100 µM,> 100 µM,> 100 µM,> 100 µM
CCc1cc(C)cc2[n+]1CC=C2,78.6 µM,,,> 100 µM,,> 100 µM,> 100 µM,,,
CN(C)CN1CSC(=S)N(CN(C)C)C1,> 100 µM,> 100 µM,,> 100 µM,,> 100 µM,> 100 µM,> 100 µM,> 100 µM,> 100 µM
COc1ccccc1NC(=S)N=Nc1c(O)[nH]c2ccccc12,> 100 µM,> 100 µM,> 100 µM,> 100 µM,> 100 µM,13.5 µM,> 100 µM,,> 100 µM,> 100 µM
COc1ccc2c(c1)Oc1cc(O)ccc1[C@H]2c1ccccc1C(=O)NC(C)c1ccccc1 (some centres undefined),31.5 µM,,,,23.6 µM,45.8 µM,35.6 µM,,,24.8 µM
COC(C/C(=C/CO[Si](C(C)C)(C(C)C)C(C)C)C(=O)N(C(=O)OC(C)(C)C)c1ccccc1I)OC,> 100 µM,> 100 µM,41.2 µM,> 100 µM,> 100 µM,> 100 µM,> 100 µM,,> 100 µM,> 100 µM
COc1cccc2c1C(=O)c1c(O)c3c(c(O)c1C2=O)C[C@@](O)(C(C)=O)CC3S(=O)(=O)O (some centres undefined),> 100 µM,,,> 100 µM,> 100 µM,> 100 µM,> 100 µM,,,> 100 µM
Nc1nc(NCCOCP(=O)(O)O)c([N+](=O)[O-])c(=O)[nH]1,> 100 µM,,,,> 100 µM,> 100 µM,> 100 µM,,,> 100 µM
Cc1c(C(=O)O)n2c(=S)[nH]nc2c2ccccc12,> 100 µM,> 100 µM,> 100 µM,> 100 µM,> 100 µM,> 100 µM,> 100 µM,,> 100 µM,> 100 µM
CSc1cc(Cl)c(C)cc1S(=O)(=O)NC(=O)NNc1ccc(F)cc1,> 100 µM,> 100 µM,> 100 µM,> 100 µM,,> 100 µM,> 100 µM,,> 100 µM,
COC(=O)[C@H](CC(C)C)NC(=O)[C@H](Cc1ccccc1)N1CC2C=CC1C2 (some centres undefined),> 100 µM,,,> 100 µM,79.2 µM,> 100 µM,> 100 µM,,,> 100 µM
CN(c1ccccc1)S(=O)(=O)c1ccc([N+](=O)[O-])cc1,> 100 µM,,> 100 µM,> 100 µM,> 100 µM,> 100 µM,> 100 µM,> 100 µM,> 100 µM,
COc1ccc2nc3c([N+](=O)[O-])ccc(NCCN(C)C)c3c(N)c2c1,3.29 µM,4.5 µM,1.1 µM,2.95 µM,0.557 µM,3.12 µM,0.562 µM,,2.91 µM,3.63 µM
